For this experiment, the system named is ProcM. The experiment can be described thus: ProcM reactions with other. Type of experiment: biochemical, Prochlorococcus MIT9313. The conditions noted are these: preliminary; data not shown.

In the case of “ProcA4.3: ProcA substrate (TASGGCDTSMFCY; UniProt Q7V735 65-77, looked up)”, the cyclization kinetics entry was “some thioether rings form quickly, while others require a much longer time”.

The values are drawn from paper PMC4277782 (Journal of the American Chemical Society, 2014).
